As usually defined, the half-life is the time needed for the level to fall by half in the phase considered. Read a low half-life as rapid decline.

Where two headings read alike, the source gives them in different places.

The conditions of data set [1]: in humans; cited from earlier work.
A short description of data set [2]: Pharmacokinetics of exogenous mouse GIP. The class given is in vivo, female C57Bl/6Jrj mice. As to conditions: for peak intact GIP concentration as % of peak total GIP concentration: in-house RIAs; for increase of iAUC of intact GIP upon co-administration of Val-Pyr: P < 0.0001; for Clearance, corrected for body weight / Apparent volume of distribution corrected for body weight: IV 25 nmol/kg BW, mean ± SE, n = 6-9; for Clearance, corrected for body weight: CL = k*Vd.

The conditions of data set [3]: anaesthetized rats; cited from earlier work.
The mark [4] stands for this setting: female, C57Bl/6Jrj, mouse, plasma, iv, 25 nmol/kg BW.

As to “human GIP(1–42): human GIP(1–42), half-life in humans quoted from ref 11”, the plasma half-life entry in data set [1] is on record as “approximately 7 min”.

Take `CC[C@H](C)[C@H](NC(=O)[C@H](CO)NC(=O)[C@H](Cc1ccc(O)cc1)NC(=O)[C@H](CC(=O)O)NC(=O)[C@H](CO)NC(=O)[C@@H](NC(=O)[C@H](Cc1ccccc1)NC(=O)[C@@H](NC(=O)CNC(=O)[C@H](CCC(=O)O)NC(=O)[C@H](C)NC(=O)[C@@H](N)Cc1ccc(O)cc1)[C@@H](C)O)[C@@H](C)CC)C(=O)N[C@@H](C)C(=O)N[C@@H](CCSC)C(=O)N[C@@H](CC(=O)O)C(=O)N[C@@H](CCCCN)C(=O)N[C@H](C(=O)N[C@@H](CCCNC(=N)N)C(=O)N[C@@H](CCC(N)=O)C(=O)N[C@@H](CCC(N)=O)C(=O)N[C@@H](CC(=O)O)C(=O)N[C@@H](Cc1ccccc1)C(=O)N[C@H](C(=O)N[C@@H](CC(N)=O)C(=O)N[C@@H](Cc1c[nH]c2ccccc12)C(=O)N[C@@H](CC(C)C)C(=O)N[C@@H](CC(C)C)C(=O)N[C@@H](C)C(=O)N[C@@H](CCC(N)=O)C(=O)N[C@@H](CCCNC(=N)N)C(=O)NCC(=O)N[C@@H](CCCCN)C(=O)N[C@@H](CCCCN)C(=O)N[C@@H](CO)C(=O)N[C@@H](CC(=O)O)C(=O)N[C@@H](Cc1c[nH]c2ccccc12)C(=O)N[C@@H](CCCCN)C(=O)N[C@@H](Cc1c[nH]cn1)C(=O)N[C@@H](CC(N)=O)C(=O)N[C@H](C(=O)N[C@H](C(=O)N[C@@H](CCC(N)=O)C(=O)O)[C@@H](C)O)[C@@H](C)CC)C(C)C)[C@@H](C)CC` [GIP(1–42)]: the “peak intact GIP concentration as % of peak total GIP concentration” value in data set [2] (IP injection 25 nmol/kg BW, with Val-Pyr) is recorded as 82%; in data set [2] (IP injection 25 nmol/kg BW, without Val-Pyr) it was 16%; in data set [2] (IV injection 25 nmol/kg BW, with Val-Pyr), 110%; in data set [2] (IV injection 25 nmol/kg BW, without Val-Pyr, mean), 41%; in data set [2] (SC injection 25 nmol/kg BW, with Val-Pyr) it was 82%; in data set [2] (SC injection 25 nmol/kg BW, without Val-Pyr), 14%. Further, the “increase of iAUC of intact GIP upon co-administration of Val-Pyr” value in data set [2] (IP injection 25 nmol/kg BW, Fig. 1F) came to 7.8 fold; in data set [2] (IV injection 25 nmol/kg BW, Fig. 1B), 5.4 fold; in data set [2] (SC injection 25 nmol/kg BW, Fig. 1D) it was 8.1 fold. Further, the figures for the “Clearance, corrected for body weight” value in data set [2] (Val-Pyr co-administration) and in data set [2] (placebo (no Val-Pyr)) were 45 ± 4 µL/min/g and 207 ± 16 µL/min/g, respectively. For the same compound, the “Apparent volume of distribution corrected for body weight” value worked out at 0.46 ± 0.03 mL/g in data set [2] (Val-Pyr co-administration) and 0.34 ± 0.1 mL/g in data set [2] (placebo (no Val-Pyr), Vd = total dose/C0). Besides, in data set [2] (setting [4]), the half-life was 1.5 min. Moreover, the tissue uptake dose was found to be 13 ± 1 %ID in data set [2] (setting [4]) and 10 ± 1 %ID in data set [2] (female, C57Bl/6Jrj, mouse, plasma, sc, 25 nmol/kg BW). Besides, in data set [2] (following SC and IP GIP administration without DPP-4 inhibitor), the “intact GIP levels as % of total GIP plasma concentrations” value was “approximately 15%”. Further, the figures for the plasma half-life entry in data set [3] and in data set [1] were “approximately 2 min” and “approximately 7 min”, respectively.

The values above are taken from publication PMC7883216 (Peptides, 2021).
